Data from patent publication US9066516B2, “Uses of thaxtomin and thaxtomin compositions as herbicides” (priority 2008, dated 2015).
Where two headings read alike, the source gives them in different places.

How the values were obtained:
Format in all cases: in vivo
[1] = test system: dandelion; assay: Greenhouse synergy test MBI-005 + turf herbicides (Example 11); details: 14 days
Description: (§1) The common turf weeds dandelion and plantain were used in testing for synergy between MBI-005 and 2, 4- or dicamba, two common turf herbicides.
(§2) There were 3 replicates per treatment which were sprayed with approximately ⅔ ml per replicate. The treatments were completely randomized and kept in a greenhouse at 25° C. The efficacy was rated at 7 and 14 days post treatment.

[2] = test system: plantain; assay: as above; details: 14 days
Description: as §1, §2

[3] = test system: crabgrass; assay: Post-emergent MBI-005 + Atrazine on crabgrass (Example 17); details: 35% Atrazine Label Rate
Description: Ten seedlings in 2.5 cm square pots containing plant growth mix were sprayed with two suboptimal rates of MBI-005, and 35% of the atrazine label rate (0.3 gallons/A), or a combination thereof, at a volume of 40 gal/A using a cabinet track sprayer. Negative controls were sprayed with water. Pots were randomly placed in a growth room at 25° C. and 50% RH, and watered as necessary. Treatments were replicated five times and evaluated at 7 and 14 days for visual % damage, with 0% indicating no damage and 100% indicating plant death.
(§3) Synergy was calculated as the ratio of observed (E) to expected (E/Ee) percent control using Colby's formula.

[4] = test system: barnyard grass; assay: Greenhouse spray test bialaphos + MBI-005 (Example 10)
Description: The MBI-005 and bialaphos were prepared at various concentrations either as single ingredients or in combination with bialaphos. The treatments were applied at approximately ⅔ ml per replicate with a hand-help spray nozzle to barnyard grass or sedge. There were 3 replicates per treatment which were randomized after spray and were kept in a greenhouse at 25° C. for evaluation of phytotoxicity (% control).

[5] = test system: small-flower umbrella sedge; assay: Field study, 1-sq foot plots (Example 5); details: 14 days after treatment
Description: (§4) The combined effect of thaxtomin A and two commercial herbicides (Bipyribac-sodium formulated as Regiment and Lemongrass oil formulated as GreenMatch EX) on small-flower umbrella sedge and watergrass is tested in a field study using small (1-sq foot) plots. All single product treatments and tank mix combinations were sprayed at 57 gal per acre. Means in each column marked with the same letter in Table 2 are not statistically different from each other at p<0.05

[6] = test system: watergrass; assay: Field study, 1-sq foot plots (Example 5); details: 14 days after treatment
Description: as §4

[7] = test system: barnyard grass; assay: Greenhouse synergy test MBI-005 + commercial herbicides (Example 11); details: 14 days
Description: (§5) The test species barnyard grass, ragweed, sedge, and broad-leaf mustard were used for the valuation of synergy between MBI-005 and the rice herbicides clomazone, penoxsulam, cyhalofop, fenoxaprop-p-ethyl, bispyribac-sodium, thiobencarb, and propanil.
as §2

[8] = test system: broad-leaf mustard; assay: as above; details: 14 days
Description: as §5, §2

[9] = test system: ragweed; assay: as above; details: 14 days
Description: as §5
(§6) […] other herbicides commonly used for field crops, glyphosate, glufosinate, synthetic version of bialaphos, and mesotrione were also tested for synergy with MBI-005 on crabgrass and ragweed.
as §2

[10] = test system: barnyard grass; assay: Post-emergent MBI-005 + rice herbicides on barnyard grass (Example 18); details: 14 days
Description: Ten seedlings in 2.5 cm square pots containing plant growth mix were sprayed to full coverage using a hand sprayer. Negative controls were sprayed with water. Pots were randomly placed in a growth room at 25° C. and 50% RH, and watered as necessary. Treatments were replicated three times and evaluated at 7 and 14 days for visual % damage, with 0% indicating no damage and 100% indicating plant death.
Synergistic effect were noted between MBI-005 and all three rice herbicides, 14 days after treatment. Synergy was calculated as the ratio of observed (E) to expected (E/Ee) percent control using Colby's formula.

[11] = test system: small flower umbrella sedge; assay: Post-emergent MBI-005 + rice herbicides on smallflower umbrella sedge (Example 19); details: 14 days
Description: Twenty seedlings in 2.5 cm square pots containing plant growth mix were sprayed to full coverage using a hand sprayer. Negative controls were sprayed with water. Pots were randomly placed in a growth room at 25° C. and 50% RH, and watered as necessary. Treatments were replicated three times and evaluated at 7 and 14 days for visual % damage, with 0% indicating no damage and 100% indicating plant death.
as §3

[12] = test system: crabgrass; assay: Crabgrass seed germination, MBI-005 + m-Tyrosine (Example 15); details: 7 DAT; for AVG No. germinated: forty-five seeds
Description: Forty-five seeds were placed on a ring of blotter paper inside a 3 cm petri dish, covered with 10 cm^3 of inert baked clay particle media and supplied with 7 ml of 0.035 mg/ml MBI-005, a m-Tyrosine concentration, or a combination of MBI-005 and m-Tyrosine (Table 14). Water was used as a negative control. Petri dishes were randomly placed in a growth room at 25° C. and 50% RH. Treatments were replicated three times and germinated seeds were counted 7 days after application; water was added as necessary to maintain moisture levels inside each petri dish.
Synergy was calculated as the ratio of observed (E) to expected (E/Ee) reduction in germination using Colby's formula.

[13] = test system: redstem; Ammania spp.; assay: Greenhouse study thaxtomin A / sarmentine (Example 9); details: 25 days after treatment
Description: (§7) A strain of S. acidiscabies was grown in oat bran broth for 5 days (25° C., 200 rpm). The whole cell broth was extracted using XAD resin, and the dried crude extract was resuspended in 4% ethanol and 0.2% non-ionic surfactant at a concentration of 10 mg/mL. The diluted extracts containing 0.2 and 0.4 mg thaxtomin A per mL were tested on three weed species (redstem; Ammania spp., smallflower umbrella sedge; Cyperus difformis and sprangletop: Leptochloa uninervia). Other treatments included sarmentine at 2.5 and 5.0 mg/mL, and a combination treatment containing 0.2 mg thaxtomin A and 2.5 mg sarmentine per mL. Each treatment was applied in three replicates. Treated plants were kept in a greenhouse under 12 h light/12 h dark conditions.

[14] = test system: smallflower umbrella sedge; Cyperus difformis; assay: as above; details: 25 days after treatment
Description: as §7

[15] = test system: sprangletop: Leptochloa uninervia; assay: as above; details: 25 days after treatment
Description: as §7

[16] = test system: sedge; assay: Greenhouse synergy test MBI-005 + commercial herbicides (Example 11); details: 14 days
Description: as §5, §2

[17] = test system: crabgrass; assay: Greenhouse synergy test MBI-005 + field crop herbicides (Example 11); details: 14 days
Description: as §6, §2

[18] = test system: Smallflower umbrella sedge; assay: Post-emergent MBI-005 + Thiobencarb on Smallflower umbrella sedge (Example 21); details: post-emergence, 336 h, 14 days, read-out: Observed Average % Efficacy (E)
Description: […] Negative controls were sprayed with water. Pots were randomly placed in a growth room at 25° C. and 50% RH, and watered as necessary. Treatments were replicated three times and evaluated at 7 and 14 days for visual % damage, with 0% indicating no damage and 100% indicating plant death.
as §3

[19] = Bispyribac-sodium 13.3% v/v of label rate

## O=C(O)COc1ccc(Cl)cc1Cl [2,4-D, reference compound]
[1]; 2, 4-D 0.176 mg/mL
  % Control Product: 25.0%
[2]; 2, 4-D 2.340 mg/mL
  % Control Product: 50.0%

## CCNc1nc(Cl)nc(NC(C)C)n1 [Atrazine, reference compound]
[3]; 7DAT
  AVG E (visual % damage): 11.9%
[3]; 14DAT
  AVG/ E (visual % damage): 8.8%

## C[C@H](NC(=O)[C@H](C)NC(=O)[C@@H](N)CCP(C)(=O)O)C(=O)O [Bialaphos]
[4]; Table 6, Bialaphos 0.089 mg/mL
  % Control (14 days): 0.0 a %
[4]; Table 6, Bialaphos 0.178 mg/mL
  % Control (14 days): 0.0 a %
[4]; Table 6, Bialaphos 0.356 mg/mL
  % Control (14 days): 0.0 a %
[4]; Table 6, Bialaphos 0.534 mg/mL
  % Control (14 days): 0.0 a %
[4]; Table 6, Bialaphos 0.712 mg/mL
  % Control (14 days): 0.0 a %
[4]; Table 6, Bialaphos 0.890 mg/mL
  % Control (14 days): 1.3 ab %
[4]; Table 6, Bialaphos 1.068 mg/mL
  % Control (14 days): 5.0 abc %
[4]; Table 7, Bialaphos 0.18 mg/mL
  % Control (14 days): 6.7 bc %
[4]; Table 7, Bialaphos 0.53 mg/mL
  % Control (14 days): 3.3 ab %
[4]; Table 7, Bialaphos 1.07 mg/mL
  % Control (14 days): 10.0 c %
[4]; Table 7, Bialaphos 1.07 mg/mL, listed as bialaphos
  % Control (14 days): 10%
[4]; Table 8, Bialaphos 1.1 mg/mL
  % Control (7 days): 5.0 ab %
  % Control (14 days): 3.7 a %
[4]; Table 8, Bialaphos 1.4 mg/mL
  % Control (7 days): 10.8 b %
  % Control (14 days): 23.3 b %
[4]; Table 8, Bialaphos 1.8 mg/mL
  % Control (7 days): 62.5 c %
  % Control (14 days): 66.7 c %

## COc1cc(OC)nc(Oc2cccc(Oc3nc(OC)cc(OC)n3)c2C(=O)O)n1 [Bispyribac-sodium]
[5]; Bispyribac-sodium 12 g/acre
  Sedge control (%): 87.5a %
[5]; Bispyribac-sodium ½ (6 g/acre)
  Sedge control (%): 47.5c %
[6]; Bispyribac-sodium 12 g/acre
  Watergrass control (%): 32.5a %
[6]; Bispyribac-sodium ½ (6 g/acre)
  Watergrass control (%): 15c %
[7]; bispyribac-sodium 0.032 mg/mL
  % Control Product: 0.0%
[8]; bispyribac-sodium 0.0216 mg/mL
  % Control Product: 53.3%
[9]; bispyribac-sodium 0.0216 mg/mL
  % Control Product: 5.0%
[10]; [19]
  % control chemical AI: 6.7%
[11]; [19]
  % control AI: 37.5%

## N[C@@H](Cc1cccc(O)c1)C(=O)O [M-tyrosine, m-Tyrosine]
[12]; .22 mg/mL M-tyrosine
  E (% controlled compared to UTC): 8.3%
  AVG No. germinated: 40.7
[12]; .44 mg/mL M-tyrosine
  E (% controlled compared to UTC): 0.8%
  AVG No. germinated: 44.0

## CCCCC/C=C/C=C/C(=O)N1CCCC1 [Sarmentine]
[13]; Sarmentine 2.5 mg/mL
  Control of redstem (%): 0a %
[13]; Sarmentine 5.0 mg/mL
  Control of redstem (%): 2.5ab %
[14]; Sarmentine 2.5 mg/mL
  Control of sedge (%): 8.3a %
[14]; Sarmentine 5.0 mg/mL
  Control of sedge (%): 6.7a %
[15]; Sarmentine 2.5 mg/mL
  Control of sprangletop (%): 80.0c %
[15]; Sarmentine 5.0 mg/mL
  Control of sprangletop (%): 92.3d %

## CC1(C)CON(Cc2ccccc2Cl)C1=O [clomazone]
[7]; clomazone 0.513 mg/mL
  % Control Product: 37.5%
[8]; clomazone 0.513 mg/mL
  % Control Product: 25.0%
[16]; clomazone 0.501 mg/mL
  % Control Product: 0.0%
[10]; Clomazone 13.3 % v/v of label rate
  % control chemical AI: 37.50%
[11]; Clomazone 13% v/v of label rate
  % control AI: 0.0%

## COc1c(Cl)ccc(Cl)c1C(=O)O [dicamba, reference compound]
[1]; dicamba 0.121 mg/mL
  % Control Product: 45.8%
[2]; dicamba 6.025 mg/mL
  % Control Product: 50.0%

## CCOC(=O)[C@@H](C)Oc1ccc(Oc2nc3ccc(Cl)cc3o2)cc1 [fenoxaprop-p-ethyl]
[7]; fenoxaprop-p-ethyl 0.006 mg/mL
  % Control Product: 91.7%
[8]; fenoxaprop-p-ethyl 0.006 mg/mL
  % Control Product: 0.0%
[16]; fenoxaprop-p-ethyl 0.116 mg/mL
  % Control Product: 0.0%

## CP(=O)(O)CCC(N)C(=O)O (stereo not drawn) [glufosinate]
[9]; glufosinate 0.194 mg/mL
  % Control Product: 22.5%
[17]; glufosinate 0.151 mg/mL
  % Control Product: 83.3%

## O=C(O)CNCP(=O)(O)O [glyphosate]
[9]; glyphosate 2.198 mg/mL
  % Control Product: 15.0%
[17]; glyphosate 0.754 mg/mL
  % Control Product: 45.8%

## CS(=O)(=O)c1ccc(C(=O)C2C(=O)CCCC2=O)c([N+](=O)[O-])c1 [mesotrione]
[9]; mesotrione 0.96 mg/mL
  % Control Product: 25.0%
[17]; mesotrione 0.24 mg/mL
  % Control Product: 62.5%

## COc1cnc(OC)n2nc(NS(=O)(=O)c3c(OCC(F)F)cccc3C(F)(F)F)nc12 [penoxsulam]
[7]; penoxsulam 0.051 mg/mL
  % Control Product: 25.0%
[16]; penoxsulam 0.047 mg/mL
  % Control Product: 66.7%
[10]; Penoxsulam 13.0 % v/v of label rate
  % control chemical AI: 25.0%
[11]; Penoxsulam 13% v/v of label rate
  % control AI: 33.3%

## CCN(CC)C(=O)SCc1ccc(Cl)cc1 [thiobencarb]
[7]; thiobencarb 1.743 mg/mL
  % Control Product: 41.7%
[8]; thiobencarb 1.743 mg/mL
  % Control Product: 10.0%
[16]; thiobencarb 3.15 mg/mL
  % Control Product: 58.3%
[11]; Thiobencarb 25% v/v of label rate
  % control AI: 41.7%
[18]; first series, 25% Thiobencarb
  Observed average % efficacy: 41.7%
[18]; second series, 15% Thiobencarb
  Observed average % efficacy: 25%
